Data as given in patent publication US7494980B2, “Antimicrobial peptide and methods of use thereof” (The United States of America as represented by the …, priority 2003, dated 2009).

Tested on: saliva bacteria (facultative anaerobic oral bacteria collected from saliva)
Assay: In vitro killing of saliva bacteria
Assay type: cell-based
Settings: 0.5 h; chlorhexidine 0.12%, positive control; data not shown; read-out: log reduction in facultative anaerobic saliva organisms
Description: The killing assay of saliva bacteria was done according to procedures established by Helmerhorst et al. (1999). Unstimulated saliva was collected from four healthy individuals who had refrained from eating for at least 2 hours. The study was approved by the Institutional Review Board of the Walter Reed Army Institute of Research and informed consent and sample donation consent were obtained from all volunteers. Pooled saliva was initially spun at 500 r.p.m. in an Eppendorf centrifuge (model 5810R) for 10 min at 4° C. to remove epithelial cells and mucus. Saliva bacteria were collected by spinning the supernatant at 4000 r.p.m. for 15 min at 4° C. The pellet was washed three times in 10 mM potassium phosphate buffer (PPB) and suspended in the same buffer to give approximately 1.0×10^7 cells ml^−1. Bacterial suspension (250 μl) was mixed with 250 μl peptide to obtain final peptide concentrations of 12.5, 25, 50, 100 and 200 μg ml^−1. After incubation of the mixture at 37° C. for 30 min, cells were spun down to remove KSL, washed once in PBS having a pH of 7.4 and suspended in PBS before spiral-plating 50 μl of the treated and untreated cells in different dilutions on BAP. The negative control was exposed to buffer only. Saliva bacteria exposed to 0.12% aqueous chlorhexidine served as positive controls. […]

[H]/N=C(\N/C(=N/[H])NCCCCCCNC(=N)NC(=N)Nc1ccc(Cl)cc1)Nc1ccc(Cl)cc1 [chlorhexidine, reference compound]
log reduction at 0.12 %: > 3
